The source of these data is ChEMBL document CHEMBL1158002, “Aurantoside C, a new tetramic acid glycoside from the sponge Homophymia conferta” (J Nat Prod, 1999).

The data set can be described thus: Toxicity against brine shrimp. Particulars: artemia, in vivo. The data set is classed as organism-based.

Values after ≈ are worked out from the molar mass of the structure shown.

`C/C(Cl)=C/C=C/C(Cl)=C/C=C/C=C/C=C/C=C/C(O)=C1\C(=O)[C@H](CC(N)=O)N([C@@H]2OC[C@@H](O)[C@H](O)[C@H]2O[C@@H]2O[C@H](CO)[C@@H](O[C@@H]3O[C@H](C)[C@@H](O)[C@@H]3O)[C@@H]2O)C1=O` [AURANTOSIDE C]: the LC50 was 50 µg/mL (≈ 60.3 µM).

A word on the LC50: it is the concentration lethal to half of the exposed cells or organisms. The low end stands for greater toxicity, the high end for lower toxicity.
